In patent US20230312481A1, “SUBSTITUTED (PHTHALAZIN-1-YLMETHYL)UREAS, SUBSTITUTED N-(PHTHALAZIN-1-YLMETHYL)AMIDES, AND ANALOGUES THEREOF” (priority 2020, published 2023):
Like-named read-outs stand apart in the source and are kept apart here.

Test system: HBV rcDNA in HepDE19 cells
Test: HepDE19 assay with bDNA quantitation of HBV rcDNA
Assay type: cell-based, hepatitis B virus
Settings: read-out: DE-19bDNA EC50
Description: HepDE19 Assay With bDNA Quantitation of HBV rcDNA
HepDE19 (50,000 cells/well) were plated in 96-well collagen-coated tissue-culture treated microtiter plates in DMEM/F12 medium supplemented with 10% fetal bovine serum, 1% penicillin-streptomycin and 1 µg/mL tetracycline and incubated in a humidified incubator at 37° C. and 5% CO2 overnight. Next day, the cells were switched to fresh medium without tetracycline and incubated for 4 hours at 37° C. and 5% CO2. […] The final DMSO concentration in the assay was 0.5%. The plates were incubated for 7 days in a humidified incubator at 37° C. and 5% CO2. Following a 7 day-incubation, the level of rcDNA present in the inhibitor-treated wells was measured using a Quantigene 2.0 bDNA assay kit (Affymetrix, Santa Clara, CA) with HBV specific custom probe set and manufacturers instructions. Concurrently, the effect of compounds on cell viability was assessed using replicate plates, plated at a density of 5,000 cells/well and incubated for 4 days, to determine the ATP content as a measure of cell viability using the cell-titer glo reagent (CTG; Promega Corporation, Madison, WI) as per manufacturer’s instructions.
Representative compounds of the disclosure were tested for their abilities to inhibit formation of relaxed circular DNA (rcDNA) in a HepDE19 assay, as described elsewhere herein.

[1] = Hepatitis B virus, HepDE19, 168 h, HepDE19 cells, 7 day incubation, rcDNA measured by Quantigene 2.0 bDNA assay, top concentration 25 µM
[2] = Hepatitis B virus, HepDE19, 168 h
[3] = HepDE19 cells, 7 day incubation, rcDNA measured by Quantigene 2.0 bDNA assay, top concentration 25 µM

CC(c1n[nH]c(=O)c2cc(F)c(F)cc12)N(C)C(=O)c1cc2ccc(F)cc2[nH]1 (racemic) [Compound 52, N-(1-(6,7-difluoro-4-oxo-3,4-dihydrophthalazin-1-yl)ethyl)-6-fluoro-N-methyl-1H-indole-2-carboxamide]
EC50 [1]: 0.043 µM

CC(c1n[nH]c(=O)c2cc(F)c(F)cc12)N(C)C(=O)c1cc2c(F)cccc2[nH]1 (racemic) [Compound 53, N-(1-(6,7-difluoro-4-oxo-3,4-dihydrophthalazin-1-yl)ethyl)-4-fluoro-N-methyl-1H-indole-2-carboxamide]
EC50 [1]: 0.083 µM

CC(c1n[nH]c(=O)c2cc(F)c(F)cc12)N(C)C(=O)c1cc2c(F)c(F)ccc2[nH]1 (racemic) [Compound 54, N-(1-(6,7-difluoro-4-oxo-3,4-dihydrophthalazin-1-yl)ethyl)-4,5-difluoro-N-methyl-1H-indole-2-carboxamide]
EC50 [1]: 0.024 µM

Cc1c(C(=O)N(C)C(C)c2n[nH]c(=O)c3cc(F)c(F)cc23)[nH]c2ccccc12 (racemic) [Compound 55, N-(1-(6,7-difluoro-4-oxo-3,4-dihydrophthalazin-1-yl)ethyl)-N,3-dimethyl-1H-indole-2-carboxamide]
EC50 [1]: 0.44 µM

CC(C)CN(C(=O)c1cc2ccccc2[nH]1)C(C)c1n[nH]c(=O)c2cc(F)c(F)cc12 (racemic) [Compound 56, N-(1-(6,7-difluoro-4-oxo-3,4-dihydrophthalazin-l-yl)ethyl)-N-isobutyl-1H-indole-2-carboxamide]
EC50 [1]: 0.39 µM

CC(c1n[nH]c(=O)c2cc(F)c(F)cc12)N(C)C(=O)c1cc2ccccn2c1 (racemic) [Compound 59, N-(1-(6,7-difluoro-4-oxo-3,4-dihydrophthalazin-1-yl)ethyl)-N-methylindolizine-2-carboxamide]
EC50 [2]: 0.13 µM

CC(c1n[nH]c(=O)c2cc(F)c(F)cc12)N(C)C(=O)c1cc2c(F)cc(F)cc2[nH]1 (racemic) [Compound 60, N-(1-(6,7-difluoro-4-oxo-3,4-dihydrophthalazin-1-yl)ethyl)-4,6-difluoro-N-methyl-1H-indole-2-carboxamide]
EC50 [1]: 0.05 µM

CC(c1n[nH]c(=O)c2cc(F)c(F)cc12)N(C)C(=O)c1ccc(C(F)(F)F)c(F)c1 (racemic) [Compound 62, N-(1-(6,7-difluoro-4-oxo-3,4-dihydrophthalazin-1-yl)ethyl)-3-fluoro-N-methyl-4-(trifluoromethyl)benzamide]
EC50 [1]: 0.1 µM

CC(c1n[nH]c(=O)c2cc(F)c(F)cc12)N(C)C(=O)c1ccc(Br)c(F)c1 (racemic) [Compound 63, 4-bromo-N-(1-(6,7-difluoro-4-oxo-3,4-dihydrophthalazin-1-yl)ethyl)-3-fluoro-N-methylbenzamide]
EC50 [1]: 0.06 µM

CC(c1n[nH]c(=O)c2cc(F)c(F)cc12)N(C)C(=O)c1ccc(Cl)c(F)c1 (racemic) [Compound 64, 4-chloro-N-(1-(6,7-difluoro-4-oxo-3,4-dihydrophthalazin-1-yl)ethyl)-3-fluoro-N-methylbenzamide]
EC50 [1]: 0.14 µM

CC(c1n[nH]c(=O)c2cc(F)c(F)cc12)N(C)C(=O)c1ccc(Br)cc1 (racemic) [Compound 65, 4-bromo-N-(1-(6,7-difluoro-4-oxo-3,4-dihydrophthalazin-1-yl)ethyl)-N-methylbenzamide]
EC50 [1]: 0.06 µM

CC(c1n[nH]c(=O)c2cc(F)c(F)cc12)N(C)C(=O)c1ccc(C(F)(F)F)cc1 (racemic) [Compound 66, N-(1-(6,7-difluoro-4-oxo-3,4-dihydrophthalazin-1-yl)ethyl)-N-methyl-4-(trifluoromethyl)benzamide]
EC50 [1]: 0.1 µM

CC(c1n[nH]c(=O)c2cc(F)c(F)cc12)N(C)C(=O)c1cc(F)c(F)c(F)c1 (racemic) [Compound 67, N-(1-(6,7-difluoro-4-oxo-3,4-dihydrophthalazin-1-yl)ethyl)-3,4,5-trifluoro-N-methylbenzamide]
EC50 [1]: 0.74 µM

CC(c1n[nH]c(=O)c2cc(F)c(F)cc12)N(C)C(=O)c1ccc(F)c(Cl)c1 (racemic) [Compound 68, 3-chloro-N-(1-(6,7-difluoro-4-oxo-3,4-dihydrophthalazin-1-yl)ethyl)-4-fluoro-N-methylbenzamide]
EC50 [1]: 0.52 µM

CC(c1n[nH]c(=O)c2cc(F)c(F)cc12)N(C)C(=O)c1ccc(Cl)cc1 (racemic) [Compound 69, 4-chloro-N-(1-(6,7-difluoro-4-oxo-3,4-dihydrophthalazin-1-yl)ethyl)-N-methylbenzamide]
EC50 [2]: 0.2 µM

CC(c1n[nH]c(=O)c2cc(F)c(F)cc12)N(C)C(=O)c1ccc(F)c(F)c1 (racemic) [Compound 70, N-(1-(6,7-difluoro-4-oxo-3,4-dihydrophthalazin-1-yl)ethyl)-3,4-difluoro-N-methylbenzamide]
EC50 [1]: 0.89 µM

CC(c1n[nH]c(=O)c2cc(F)c(F)cc12)N(C)C(=O)c1cccc(C(F)F)c1 (racemic) [Compound 71, N-(1-(6,7-difluoro-4-oxo-3,4-dihydrophthalazin-1-yl)ethyl)-3-(difluoromethyl)-N-methylbenzamide]
EC50 [1]: 0.22 µM

CC(c1n[nH]c(=O)c2cc(F)c(F)cc12)N(C)C(=O)c1ccc(F)c(C(F)F)c1 (racemic) [Compound 72, N-(1-(6,7-difluoro-4-oxo-3,4-dihydrophthalazin-1-yl)ethyl)-3-(difluoromethyl)-4-fluoro-N-methylbenzamide]
EC50 [1]: 0.34 µM

CC(c1n[nH]c(=O)c2cc(F)c(F)cc12)N(C)C(=O)Nc1ccc(F)c(C(F)F)c1 (racemic) [Compound 73, 1-(1-(6,7-difluoro-4-oxo-3,4-dihydrophthalazin-1-yl)ethyl)-3-(3-(difluoromethyl)-4-fluorophenyl)-1-methylurea]
EC50 [1]: 0.02 µM

CC(c1n[nH]c(=O)c2cc(F)c(F)cc12)N(C)C(=O)c1ccccc1 (racemic) [Compound 74, N-(1-(6,7-difluoro-4-oxo-3,4-dihydrophthalazin-1-yl)ethyl)-N-methylbenzamide]
EC50 [2]: 17.7 µM

CC(c1n[nH]c(=O)c2cc(F)c(F)cc12)N(C)C(=O)c1cc2c(Cl)cccn2c1 (racemic) [Compound 75, 8-chloro-N-(1-(6,7-difluoro-4-oxo-3,4-dihydrophthalazin-1-yl)ethyl)-N-methylindolizine-2-carboxamide]
EC50 [1]: 0.06 µM

CC(c1n[nH]c(=O)c2cc(F)c(F)cc12)N(C)C(=O)Nc1ccc(F)c(C#N)c1 (racemic) [Compound 76, 3-(3-cyano-4-fluorophenyl)-1-(1-(6,7-difluoro-4-oxo-3,4-dihydrophthalazin-1-yl)ethyl)-1-methylurea]
EC50 [1]: 0.04 µM

CC(c1n[nH]c(=O)c2cc(F)c(F)cc12)N(C)C(=O)c1cc2c(F)cccn2c1 (racemic) [Compound 77, N-(1-(6,7-difluoro-4-oxo-3,4-dihydrophthalazin-1-yl)ethyl)-8-fluoro-N-methylindolizine-2-carboxamide]
EC50 [1]: 8.38 µM

CC(c1n[nH]c(=O)c2cc(F)c(F)cc12)N(C)C(=O)c1cnc(C(F)(F)F)c(F)c1 (racemic) [Compound 114, N-(1-(6,7-difluoro-4-oxo-3,4-dihydrophthalazin-1-yl)ethyl)-5-fluoro-N-methyl-6-(trifluoromethyl)nicotinamide]
EC50 [1]: 4.18 µM

CC(c1n[nH]c(=O)c2ccccc12)N(C)C(=O)Nc1ccc(F)c(Cl)c1 (single isomer, unassigned) [Compound 3, 3-(3-chloro-4-fluoro-phenyl)-1-methyl-1-[1-(4-oxo-3H-phthalazin-1-yl)ethyl]urea]
EC50 [3]: 14 µM

CC(c1n[nH]c(=O)c2ccccc12)N(C)C(=O)Nc1ccc(F)c(Cl)c1 (single isomer, unassigned) [Compound 4, 3-(3-chloro-4-fluoro-phenyl)-1-methyl-1-[1-(4-oxo-3H-phthalazin-1-yl)ethyl]urea]
EC50 [3]: 0.2 µM

CC(C)CN(C(=O)Nc1ccc(F)c(Cl)c1)C(C)c1n[nH]c(=O)c2ccccc12 (single isomer, unassigned) [Compound 5, 3-(3-chloro-4-fluoro-phenyl)-1-isobutyl-1-[1-(4-oxo-3H-phthalazin-1-yl)ethyl]urea]
EC50 [3]: 0.01 µM

CC(C)CN(C(=O)Nc1ccc(F)c(Cl)c1)C(C)c1n[nH]c(=O)c2ccccc12 (single isomer, unassigned) [Compound 6, 3-(3-chloro-4-fluoro-phenyl)-1-isobutyl-1-[1-(4-oxo-3H-phthalazin-1-yl)ethyl]urea]
EC50 [3]: 1.7 µM

CC(C)CN(C(=O)Nc1ccc(F)cc1)C(C)c1n[nH]c(=O)c2cc(F)ccc12 (single isomer, unassigned) [Compound 20, 1-(1-(6-fluoro-4-oxo-3,4-dihydrophthalazin-1-yl)ethyl)-3-(4-fluorophenyl)-1-isobutylurea]
EC50 [3]: 0.008 µM

CC(C)CN(C(=O)Nc1ccc(F)cc1)C(C)c1n[nH]c(=O)c2cc(F)ccc12 (single isomer, unassigned) [Compound 21, 1-(1-(6-fluoro-4-oxo-3,4-dihydrophthalazin-1-yl)ethyl)-3-(4-fluorophenyl)-1-isobutylurea]
EC50 [3]: 2.4 µM

C[C@H](c1n[nH]c(=O)c2cc(F)c(F)cc12)N(C)C(=O)Nc1ccc(F)c(Cl)c1 (single isomer, unassigned) [Compound 32]
EC50 [2]: 0.021 µM
